Series [1] concerns the target T1, Peptidyl-prolyl cis-trans isomerase A (Homo sapiens, UniProt P62937). The series can be described thus: Inhibition of fluorescent cyclosporin A binding to human CypA by TR-FRET assay.
The target in series [2] is T1, Peptidyl-prolyl cis-trans isomerase A. The series can be described thus: Binding affinity to CypA (unknown origin) by fluorescence titration method.
Series [3] can be described thus: Aqueous solubility of the compound. It counts as physicochemical. Particulars: buffer.
A short description of series [4]: Distribution coefficient, logD of the compound. It counts as physicochemical. The conditions noted are these: octanol/water.
Series [5] is described as follows: Unbound fraction in human plasma. It is filed as ADME, cell-free.
Series [6] is described as follows: Apparent permeability across apical to basolateral side in human Caco2 cells. It is filed as ADME, cell-based. The conditions noted are these: Caco-2.
Series [7] is described as follows: Apparent permeability across basolateral to apical side in human Caco2 cells. It counts as ADME, cell-based. Particulars: Caco-2.
Series [8] is described as follows: Intrinsic clearance in human liver microsomes. The conditions noted are these: read-out: CLH. It is filed as ADME.

Numbered stars: 1 amine (or outer) side, 2 acyl side, 3 side chain; on linkers, the order of the positions; unused ones are H or OH. Peptide text beside a SMILES is read from it. * marks the point of attachment. pNA = O=[N+]([O-])c1ccc(N*)cc1; Suc = O=C(CCC(=O)[*:2])[*:1]

T1 sequence (P62937 whole entry): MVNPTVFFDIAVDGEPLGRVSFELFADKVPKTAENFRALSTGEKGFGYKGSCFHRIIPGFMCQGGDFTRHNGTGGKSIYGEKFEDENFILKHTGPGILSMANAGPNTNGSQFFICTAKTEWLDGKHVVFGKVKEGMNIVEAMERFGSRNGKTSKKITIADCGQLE

For the compound `C[C@@]1(NC(=O)c2cc(Cl)cc(Cl)c2)COCCCCOC[C@@H](C(=O)O)NC(=O)[C@@H]2CCCN2C(=O)CNC1=O`, the Kd in series [1] is over 600 µM.
In the case of `C[C@@]1(NCCCc2ccccc2)COCCCCOC[C@@H](C(=O)O)NC(=O)[C@@H]2CCCN2C(=O)CNC1=O`, the Kd in series [1] is over 600 µM.
Still for that read-out and setting: then `C[C@@]1(NCC2CCCCCCC2)COCCCCOC[C@@H](C(=O)O)NC(=O)[C@@H]2CCCN2C(=O)CNC1=O`, with 5.4 µM; and `C[C@@]1(NCC2CCCCC2)COCCCCOC[C@@H](C(=O)O)NC(=O)[C@@H]2CCCN2C(=O)CNC1=O`, with 32 µM; and `C[C@@]1(NCc2ccccc2)COCCCCOC[C@@H](C(=O)O)NC(=O)[C@@H]2CCCN2C(=O)CNC1=O`, with over 600 µM.
For `C[C@@]1(NCC2CCOCC2)COCCCCOC[C@@H](C(=O)O)NC(=O)[C@@H]2CCCN2C(=O)CNC1=O`, the Kd in series [1] is over 600 µM.
Regarding `C[C@@]1(NC(=O)C2CCC2)COCCCCOC[C@@H](C(=O)O)NC(=O)[C@@H]2CCCN2C(=O)CNC1=O`, binding in series [1] was characterised by a dissociation constant (Kd) of 139 µM.
For the compound `C[C@H](NC(=O)CCC(=O)O)C(=O)NCC(=O)N1CCC[C@H]1C(=O)N[C@@H](Cc1ccccc1)C(=O)Nc1ccc([N+](=O)[O-])cc1` (Suc-AGPF-pNA), the Kd in series [2] amounted to 135 µM.
Turning to `C[C@@]1(NCCc2ccccc2)COCCCCOC[C@@H](C(=O)O)NC(=O)[C@@H]2CCCN2C(=O)CNC1=O.Cl`, the solubility in series [3] was over 1000 µM. In addition, in series [4], the logD is -1.8. In series [5], this compound registered a fraction unbound of 1. Moreover, the Papp A→B in series [6] was found to be 0.1 ×10⁻⁶ cm/s. Further, the Papp B→A in series [7] was 0.17 ×10⁻⁶ cm/s. Further, the Kd in series [1] stood at 10.5 µM. Further, in series [8], the microsomal CLint is under 3 µL/min/mg.
As to `CCCCCCC(=O)N[C@]1(C)COCCCCOC[C@@H](C(=O)O)NC(=O)[C@@H]2CCCN2C(=O)CNC1=O`, the Kd in series [1] is over 600 µM.
The same measure, in the same setting: then `C[C@@]1(N)COCCCCOC[C@@H](C(=O)O)NC(=O)[C@@H]2CCCN2C(=O)CNC1=O`, with 127 µM; and `CC(=O)N[C@]1(C)COCCCCOC[C@@H](C(=O)O)NC(=O)[C@@H]2CCCN2C(=O)CNC1=O`, with over 600 µM; and `C[C@@]1(NCC2CCCC2)COCCCCOC[C@@H](C(=O)O)NC(=O)[C@@H]2CCCN2C(=O)CNC1=O`, with over 600 µM.

(Values after ChEMBL document CHEMBL3862006, “Design and synthesis of peptide-based macrocyclic cyclophilin inhibitors” (Bioorg Med Chem Lett, 2016).)
